Consider 20 compounds from patent publication US20050107423A1, “Quinolone antibacterial agents” (priority 2003, published 2005).

Each structure is given as a SMILES string. Converted amounts (≈) assume the structure as drawn.

Holding throughout (experiment): Antibacterial assay, microtitration MIC (Test A)
Holding throughout (assay type): cell-based

One experiment deals with E. faecalis MGH-2. The conditions noted are these: strain MGH-2; for MIC: Enterococcus faecalis, MGH2, Gram Positive Bacteria, read-out: Minimum Inhibitory Concentrations E. faecalis MGH-2. The procedure: (§1) The compounds of the present invention were tested against an assortment of Gram-negative and Gram-positive organisms using standard microtitration techniques (Cohen et. al., Antimicrob., 1985;28:766; Heifetz, et. al., Antimicrob., 1974;6:124). The results of the evaluation are shown in Tables 1A and B, wherein “-” means no data.

The next experiment concerns S pyogenes C203. The conditions noted are these: Gram Positive Bacteria, strain C203; for MIC: read-out: Minimum Inhibitory Concentrations S pyogenes C203. The procedure:
as §1

A further experiment concerns S. pneumo SV-1. The conditions noted are these: Gram Positive Bacteria, strain SV-1; for MIC: read-out: Minimum Inhibitory Concentrations S. pneumo SV-1. How it is done: as §1

Consider `O=C(O)c1cn(C2CC2)c2nc(N3CCC(C(O)C(F)F)C3)c(F)cc2c1=O` (stereo not drawn) [drawing 352], for which the MIC in the experiment on E. faecalis MGH-2 was 0.125 µg/mL (≈ 0.315 µM); with S pyogenes C203, 0.25 µg/mL (≈ 0.629 µM); in the experiment with S. pneumo SV-1, 0.25 µg/mL (≈ 0.629 µM).

Take `COc1c(N2CCC(C(O)C3(CO)CC3)C2)c(F)cc2c(=O)c(C(=O)O)cn(C3CC3)c12` (stereo not drawn) [drawing 353]: the MIC in the experiment on E. faecalis MGH-2 was 0.25 µg/mL (≈ 0.56 µM); in the experiment with S pyogenes C203 it was 0.25 µg/mL (≈ 0.56 µM); in the experiment on S. pneumo SV-1 it was 0.125 µg/mL (≈ 0.28 µM).

For `O=C(O)c1cn(C2CC2)c2c(Cl)c(N3CCC(C(O)C4(CO)CC4)C3)c(F)cc2c1=O` (stereo not drawn) [drawing 354], the MIC in the experiment with E. faecalis MGH-2, in the experiment on S pyogenes C203 and in the experiment on S. pneumo SV-1 was 0.125 µg/mL (≈ 0.277 µM) throughout.

Regarding `Cc1c(N2CCC(C(O)CO)C2)c(F)cc2c(=O)c(C(=O)O)cn(C3CC3)c12` (stereo not drawn) [drawing 356], the MIC in the experiment with E. faecalis MGH-2 stood at 2 µg/mL (≈ 5.12 µM); in the experiment on S pyogenes C203, 1 µg/mL (≈ 2.56 µM); in the experiment with S. pneumo SV-1, 1 µg/mL (≈ 2.56 µM).

As to `O=C(O)c1cn(C2CC2)c2c(Cl)c(N3CCC(C(O)CO)C3)c(F)cc2c1=O` (stereo not drawn) [drawing 357], the MIC in the experiment on E. faecalis MGH-2 was found to be 0.06 µg/mL (≈ 0.146 µM); in the experiment on S pyogenes C203 it was 0.03 µg/mL (≈ 0.073 µM); in the experiment on S. pneumo SV-1 it was 0.06 µg/mL (≈ 0.146 µM).

As to `Nc1nc(-n2cc(C(=O)O)c(=O)c3cc(F)c(N4CCC(C(O)CO)C4)cc32)c(F)cc1F` (stereo not drawn) [drawing 358], the MIC turned out to be 0.125 µg/mL (≈ 0.269 µM) with E. faecalis MGH-2, 0.125 µg/mL (≈ 0.269 µM) with S pyogenes C203 and 0.06 µg/mL (≈ 0.129 µM) with S. pneumo SV-1.

`Nc1nc(-n2cc(C(=O)O)c(=O)c3cc(F)c(N4CCC(C(O)CO)C4)c(Cl)c32)c(F)cc1F` (stereo not drawn) [drawing 359]: the MIC in the experiment with E. faecalis MGH-2, in the experiment on S pyogenes C203 and in the experiment with S. pneumo SV-1 was 0.5 µg/mL (≈ 1 µM) in each case.

As to `COc1c(N2CCC(C(O)C(F)(F)F)C2)c(F)cc2c(=O)c(C(=O)O)cn(C3CC3)c12` (stereo not drawn) [drawing 362], the MIC with E. faecalis MGH-2 stood at 0.06 µg/mL (≈ 0.135 µM); with S pyogenes C203, 0.125 µg/mL (≈ 0.281 µM); in the experiment with S. pneumo SV-1, 0.06 µg/mL (≈ 0.135 µM).

As to `Cc1c(N2CCC(C(O)C(F)(F)F)C2)c(F)cc2c(=O)c(C(=O)O)cn(C3CC3)c12` (stereo not drawn) [drawing 364], the “Minimum Inhibitory Concentrations E. faecalis MGH-2” value with E. faecalis MGH-2 (Gram Positive Bacteria) was found to be 0.06 µg/mL. Further, the “Minimum Inhibitory Concentrations S pyogenes C203” value in the experiment on S pyogenes C203 turned out to be 0.5 µg/mL. Also, the “Minimum Inhibitory Concentrations S. pneumo SV-1” value in the experiment on S. pneumo SV-1 worked out at 0.125 µg/mL.

Turning to `Nc1c(F)c(N2CCC(C(O)C(F)(F)F)C2)c(F)c2c1c(=O)c(C(=O)O)cn2C1CC1` (stereo not drawn) [drawing 365], the MIC in the experiment on E. faecalis MGH-2 was 0.06 µg/mL (≈ 0.134 µM); in the experiment on S pyogenes C203, 0.5 µg/mL (≈ 1.12 µM); in the experiment with S. pneumo SV-1 it was 0.125 µg/mL (≈ 0.279 µM).

As for `Nc1nc(-n2cc(C(=O)O)c(=O)c3cc(F)c(N4CCC(C(O)C(F)(F)F)C4)c(Cl)c32)c(F)cc1F` (stereo not drawn) [drawing 366], the MIC with E. faecalis MGH-2 was determined as 0.5 µg/mL (≈ 0.931 µM); in the experiment with S pyogenes C203 it was 1 µg/mL (≈ 1.86 µM); in the experiment with S. pneumo SV-1, 0.5 µg/mL (≈ 0.931 µM).

For `O=C(O)c1cn(C2CC2)c2nc(N3CCC(C(O)C(F)(F)F)C3)c(F)cc2c1=O` (stereo not drawn) [drawing 367], the MIC in the experiment on E. faecalis MGH-2 stood at 0.25 µg/mL (≈ 0.602 µM); in the experiment with S pyogenes C203 it was 1 µg/mL (≈ 2.41 µM); in the experiment with S. pneumo SV-1, 0.5 µg/mL (≈ 1.2 µM).

For the compound `Cc1c(N2CCC(C(O)(CO)C(F)(F)F)C2)c(F)cc2c(=O)c(C(=O)O)cn(C3CC3)c12` (stereo not drawn) [drawing 371], the MIC in the experiment with E. faecalis MGH-2, in the experiment on S pyogenes C203 and with S. pneumo SV-1 was 0.25 µg/mL (≈ 0.545 µM) in each case.

Consider `CC(O)(CO)C1CCN(c2c(F)cc3c(=O)c(C(=O)O)cn(C4CC4)c3c2Cl)C1` (stereo not drawn) [drawing 372], for which the MIC with E. faecalis MGH-2, with S pyogenes C203 and in the experiment on S. pneumo SV-1 was 0.25 µg/mL (≈ 0.588 µM) each time.

`COc1c(N2CCC(C)(C(O)CC(F)(F)F)C2)c(F)cc2c(=O)c(C(=O)O)cn(C3CC3)c12` (stereo not drawn) [drawing 376]: the MIC with E. faecalis MGH-2 stood at 0.125 µg/mL (≈ 0.265 µM); in the experiment with S pyogenes C203, 0.25 µg/mL (≈ 0.529 µM); in the experiment with S. pneumo SV-1, 0.125 µg/mL (≈ 0.265 µM).

With `COc1c(N2CC(CO)C3(CC3)C2)c(F)cc2c(=O)c(C(=O)O)cn(C3CC3)c12` (stereo not drawn) [drawing 429], the MIC with E. faecalis MGH-2 stood at 0.06 µg/mL (≈ 0.149 µM); with S pyogenes C203, 0.03 µg/mL (≈ 0.0745 µM); with S. pneumo SV-1 it was 0.03 µg/mL (≈ 0.0745 µM).

As to `O=C(O)c1cn(C2CC2)c2c(Cl)c(N3CC(CO)C4(CC4)C3)c(F)cc2c1=O` (stereo not drawn) [drawing 430], the values for the MIC in the experiment with E. faecalis MGH-2, in the experiment with S pyogenes C203 and in the experiment with S. pneumo SV-1 were 0.06 µg/mL (≈ 0.147 µM), 0.06 µg/mL (≈ 0.147 µM) and 0.03 µg/mL (≈ 0.0737 µM), respectively.

As for `COc1c(N2C[C@@H]3CC[C@@H](O)[C@@H]3C2)c(F)cc2c(=O)c(C(=O)O)cn(C3CC3)c12` [drawing 454], the MIC with E. faecalis MGH-2, in the experiment with S pyogenes C203 and with S. pneumo SV-1 was 0.125 µg/mL (≈ 0.311 µM) in each case.

Turning to `Nc1nc(-n2cc(C(=O)O)c(=O)c3cc(F)c(N4C[C@@H]5CC[C@@H](O)[C@@H]5C4)c(Cl)c32)c(F)cc1F` [drawing 455], the MIC in the experiment with E. faecalis MGH-2 was 0.25 µg/mL (≈ 0.505 µM); in the experiment on S pyogenes C203 it was 0.25 µg/mL (≈ 0.505 µM); with S. pneumo SV-1 it was 0.125 µg/mL (≈ 0.253 µM).

For the compound `CC(=O)O[C@@H]1CC[C@H]2CN(c3c(F)cc4c(=O)c(C(=O)O)cn(-c5nc(N)c(F)cc5F)c4c3Cl)C[C@H]21` [drawing 456], the figures for the MIC in the experiment with E. faecalis MGH-2, in the experiment with S pyogenes C203 and in the experiment on S. pneumo SV-1 were 0.5 µg/mL (≈ 0.931 µM), 0.5 µg/mL (≈ 0.931 µM) and 0.125 µg/mL (≈ 0.233 µM), respectively.
